Experimental findings from ChEMBL document CHEMBL1201862, “PubChem BioAssay data set” (2004) are described below.

Assay [1] concerns HEK293. In words: inhibition of NOD1-driven NF-kB reporter – cell-based, luminescence, uHTS, primary screen (AID 1578). Conditions: Homo sapiens. The class given is functional.
The test system of assay [2] is HEK293. Kind of assay: cells. Format: functional, cell-based. Conditions: Homo sapiens.
The test system of assay [3] is HEK293. In words: cells. Format: functional, cell-based. Conditions: Homo sapiens. This is another data set of the same source.
Assay [4] concerns the target T1, Cysteine protease ATG4B (Homo sapiens, UniProt Q9Y4P1).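 Also: Fluorescence-based dose-response confirmation assay measuring inhibition of ATG4B activity.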
T1 sequence (Q9Y4P1 whole entry): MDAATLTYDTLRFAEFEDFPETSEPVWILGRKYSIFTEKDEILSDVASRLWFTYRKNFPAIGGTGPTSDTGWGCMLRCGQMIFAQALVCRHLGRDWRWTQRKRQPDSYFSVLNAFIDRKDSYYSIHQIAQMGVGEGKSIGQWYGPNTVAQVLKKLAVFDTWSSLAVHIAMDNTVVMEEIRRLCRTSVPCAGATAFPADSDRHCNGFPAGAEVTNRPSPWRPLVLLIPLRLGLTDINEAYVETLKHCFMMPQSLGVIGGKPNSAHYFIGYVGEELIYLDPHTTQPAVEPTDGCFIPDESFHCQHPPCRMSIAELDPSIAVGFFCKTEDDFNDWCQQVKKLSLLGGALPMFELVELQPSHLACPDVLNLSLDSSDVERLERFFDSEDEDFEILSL
Format: functional.

Assay [5] is described as follows: non-specific 3'UTR reporter inhibition in Clone20-Shn3RL – cell-based, Renilla luciferase, cherry-picked, counter-screen for Shn3 inhibitor project, dose response (AID 624133). Format: functional. A general note: Counterscreens check selectivity or assay interference.
Assay [6] has as its target Megakaryocyte-associated tyrosine-protein kinase (Homo sapiens, UniProt P42679). Format: functional.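 Also: affinity measured as one member of a kinase panel (Navigating the Kinome) against MATK.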
Assay [7] has as its target Dual specificity protein kinase CLK2 (Homo sapiens, UniProt P49760). Format: functional.
For assay [8], the target named is Dual specificity mitogen-activated protein kinase kinase 1 (Homo sapiens, UniProt Q02750). In words: Navigating the Kinome. Panel member name: MAP2K1. The class given is functional.
In assay [9] the target is Tyrosine-protein kinase JAK2 (Homo sapiens, UniProt O60674). The class given is functional.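 Also: JAK2 tested as one member of a kinase panel.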
Assay [10] has as its target Protein kinase C delta type (Homo sapiens, UniProt Q05655). The class given is functional.
Assay [11] has as its target Tyrosine-protein kinase Lck (Homo sapiens, UniProt P06239). Format: functional.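 Also: lck was assayed as one member of a kinase panel.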
Assay [12] concerns the target Serine/threonine-protein kinase Chk2 (Homo sapiens, UniProt O96017). The class given is functional.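 Also: CHEK2 entry within a kinome-wide screening panel.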
For assay [13], the target named is Tyrosine-protein kinase Lyn (Homo sapiens, UniProt P07948). Format: functional.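 Also: lyn as one member of a kinase panel.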
The target of assay [14] is Tyrosine-protein kinase ITK/TSK (Homo sapiens, UniProt Q08881). Format: functional.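 Also: affinity for ITK measured as one member of a broad kinase panel profiling binding across the kinome.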
The target of assay [15] is Tyrosine-protein kinase Blk (Homo sapiens, UniProt P51451). Format: functional.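 Also: obtained as one member of a kinome-wide kinase assay panel.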
Assay [16] addresses MAP/microtubule affinity-regulating kinase 3 (Homo sapiens, UniProt P27448). The class given is functional.
The target of assay [17] is Serine/threonine-protein kinase Chk1 (Homo sapiens, UniProt O14757). Format: functional.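 Also: measured as one member of a kinome-wide kinase profiling panel.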
The target of assay [18] is Serine/threonine-protein kinase Nek4 (Homo sapiens, UniProt P51957). Format: functional.
Assay [19] concerns the target Maternal embryonic leucine zipper kinase (Homo sapiens, UniProt Q14680). The class given is functional.
In assay [20] the target is RAC-alpha serine/threonine-protein kinase (Homo sapiens, UniProt P31749). Format: functional.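 Also: AKT1 affinity measured as one member of a kinome-wide kinase profiling panel.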
Assay [21] deals with Vascular endothelial growth factor receptor 3 (Homo sapiens, UniProt P35916). Format: functional.
The target in assay [22] is Serine/threonine-protein kinase Nek2 (Homo sapiens, UniProt P51955). The class given is functional.
The target of assay [23] is Cyclin-dependent kinase 8 (Homo sapiens, UniProt P49336). In words: Navigating the Kinome. Panel member name: CDK8. Format: functional.
Assay [24] has as its target Serine/threonine-protein kinase PLK1 (Homo sapiens, UniProt P53350). Format: functional.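 Also: PLK1 measured as one member of a kinome-wide profiling panel.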
Assay [25] addresses Cyclin-dependent kinase 9 (Homo sapiens, UniProt P50750). The class given is functional.
Assay [26] has as its target Lymphokine-activated killer T-cell-originated protein kinase (Homo sapiens, UniProt Q96KB5). The class given is functional.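 Also: value comes from a kinase panel screen in which TOPK was one of the panel members.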
Assay [27] concerns the target Envelope glycoprotein gp160 (Human immunodeficiency virus 1, UniProt Q6QLK5). Kind of assay: cell-free HIV fusion peptide-binding blockers – biochemical, uHTS, fluorescence dequenching, […] (AID 1986).
Assay [28] relates to Staphylococcus aureus. In words: Inhibitors of Bacterial Quorum Sensing Structure Activity Relationship (SAR) Analysis: Dose Response Assay. [Related pubchem assays: 700, 527 ]. The class given is functional, organism-based.
Assay [29] in a line: fluconazole-exposed Candida albicans growth modulators – fluorescence, retest, confirmation (AID 2467). Format: functional, cell-based.
The target of assay [30] is Perilipin-1/ABHD5 (Homo sapiens, UniProt O60240+Q8WTS1). Kind of assay: Luminescence-based biochemical high throughput dose response assay for inhibitors of the interaction of the lipase co-activator protein, abhydrolase domain containing 5 (ABHD5) with perilipin-1 (PLIN1) (2K validation set). [Related pubchem assays (depositor defined):AID493027, AID493057].
A short description of assay [31]: rise of 2N DNA cells, HeLa – IC50, dose response (AID 1117349). The class given is functional, cell-based.
Assay [32] is described as follows: RKO cell viability reduction, dose response, CellTiter-Glo luminescence (AID 1117322). The class given is functional. A general note: Cellular ATP, detected with luciferase, serves as a proxy for viable cell number.
The nature of assay [33]: cytotoxicity toward Colo320 cells – cell-based, CellTiter-Glo luminescence, IC50, dose response (AID 1117334). The class given is functional. The following applies: COLO 320.
The nature of assay [34]: rise of 4N DNA cells, HeLa – IC50, dose response (AID 1117351). Format: functional, cell-based.
Assay [35] in a line: Potency on glucagon-like peptide 1 release, dose-response in NCI-H716 cell line, half maximal inhibitory concentration (AID 1117344). The class given is functional, cell-based.

Calls of active or inactive are those of the source.

Sequence of Dual specificity protein kinase CLK2 (P49760 whole entry): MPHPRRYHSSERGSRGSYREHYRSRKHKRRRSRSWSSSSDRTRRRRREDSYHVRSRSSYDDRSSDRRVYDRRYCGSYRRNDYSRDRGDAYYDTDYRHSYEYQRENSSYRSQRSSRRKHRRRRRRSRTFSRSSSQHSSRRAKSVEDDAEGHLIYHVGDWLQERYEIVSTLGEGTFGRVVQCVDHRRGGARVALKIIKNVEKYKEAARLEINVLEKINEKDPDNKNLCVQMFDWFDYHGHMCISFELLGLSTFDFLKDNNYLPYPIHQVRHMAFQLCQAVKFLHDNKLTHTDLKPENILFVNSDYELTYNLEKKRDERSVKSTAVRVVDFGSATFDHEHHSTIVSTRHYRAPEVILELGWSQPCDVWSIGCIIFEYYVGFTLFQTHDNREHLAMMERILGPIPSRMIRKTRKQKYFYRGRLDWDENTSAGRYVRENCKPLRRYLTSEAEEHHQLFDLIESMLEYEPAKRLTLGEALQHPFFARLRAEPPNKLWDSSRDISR
Sequence of RAC-alpha serine/threonine-protein kinase (P31749 whole entry): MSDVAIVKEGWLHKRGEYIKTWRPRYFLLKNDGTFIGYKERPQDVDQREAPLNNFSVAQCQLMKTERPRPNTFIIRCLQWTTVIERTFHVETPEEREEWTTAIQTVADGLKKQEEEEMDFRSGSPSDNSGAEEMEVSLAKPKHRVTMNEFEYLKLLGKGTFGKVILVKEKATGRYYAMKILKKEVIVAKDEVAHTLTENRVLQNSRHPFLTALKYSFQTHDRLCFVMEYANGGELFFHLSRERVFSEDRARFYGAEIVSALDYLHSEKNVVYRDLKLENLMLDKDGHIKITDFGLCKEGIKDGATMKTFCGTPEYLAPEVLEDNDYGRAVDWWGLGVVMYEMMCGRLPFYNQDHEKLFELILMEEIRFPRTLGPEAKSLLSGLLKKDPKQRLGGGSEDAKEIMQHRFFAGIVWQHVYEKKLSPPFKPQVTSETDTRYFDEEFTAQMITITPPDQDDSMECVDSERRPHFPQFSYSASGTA
Sequence of Megakaryocyte-associated tyrosine-protein kinase (P42679 whole entry): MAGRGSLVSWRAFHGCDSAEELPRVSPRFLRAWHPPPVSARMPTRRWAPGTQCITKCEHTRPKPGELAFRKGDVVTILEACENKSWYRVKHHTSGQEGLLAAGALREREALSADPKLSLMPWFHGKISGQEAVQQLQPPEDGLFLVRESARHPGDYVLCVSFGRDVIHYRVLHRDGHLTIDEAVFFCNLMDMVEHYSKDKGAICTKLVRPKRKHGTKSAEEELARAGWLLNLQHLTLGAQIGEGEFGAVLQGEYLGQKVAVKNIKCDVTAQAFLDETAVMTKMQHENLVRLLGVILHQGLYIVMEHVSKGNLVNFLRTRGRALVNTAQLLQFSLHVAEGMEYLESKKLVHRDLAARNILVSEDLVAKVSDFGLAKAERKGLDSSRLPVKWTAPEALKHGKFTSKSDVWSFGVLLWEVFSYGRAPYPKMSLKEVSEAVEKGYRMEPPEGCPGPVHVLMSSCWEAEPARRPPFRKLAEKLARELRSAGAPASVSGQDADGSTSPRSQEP
Sequence of Serine/threonine-protein kinase PLK1 (P53350 whole entry): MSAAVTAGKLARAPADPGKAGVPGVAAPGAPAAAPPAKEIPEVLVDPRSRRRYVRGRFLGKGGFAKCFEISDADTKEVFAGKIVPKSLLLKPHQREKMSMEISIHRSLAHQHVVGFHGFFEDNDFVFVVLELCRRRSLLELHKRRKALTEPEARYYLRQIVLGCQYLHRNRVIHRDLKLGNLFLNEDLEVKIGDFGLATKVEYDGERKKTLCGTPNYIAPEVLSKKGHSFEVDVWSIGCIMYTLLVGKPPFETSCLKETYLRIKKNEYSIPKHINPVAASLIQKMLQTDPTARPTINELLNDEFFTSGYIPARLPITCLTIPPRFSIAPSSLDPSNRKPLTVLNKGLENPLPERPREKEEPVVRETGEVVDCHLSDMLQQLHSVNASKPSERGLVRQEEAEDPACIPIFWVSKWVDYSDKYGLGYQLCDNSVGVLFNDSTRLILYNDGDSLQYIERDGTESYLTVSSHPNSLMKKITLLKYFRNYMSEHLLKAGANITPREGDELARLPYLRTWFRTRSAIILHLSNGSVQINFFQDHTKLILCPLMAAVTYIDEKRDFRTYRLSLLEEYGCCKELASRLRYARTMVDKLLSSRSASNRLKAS
Sequence of Serine/threonine-protein kinase Chk1 (O14757 whole entry): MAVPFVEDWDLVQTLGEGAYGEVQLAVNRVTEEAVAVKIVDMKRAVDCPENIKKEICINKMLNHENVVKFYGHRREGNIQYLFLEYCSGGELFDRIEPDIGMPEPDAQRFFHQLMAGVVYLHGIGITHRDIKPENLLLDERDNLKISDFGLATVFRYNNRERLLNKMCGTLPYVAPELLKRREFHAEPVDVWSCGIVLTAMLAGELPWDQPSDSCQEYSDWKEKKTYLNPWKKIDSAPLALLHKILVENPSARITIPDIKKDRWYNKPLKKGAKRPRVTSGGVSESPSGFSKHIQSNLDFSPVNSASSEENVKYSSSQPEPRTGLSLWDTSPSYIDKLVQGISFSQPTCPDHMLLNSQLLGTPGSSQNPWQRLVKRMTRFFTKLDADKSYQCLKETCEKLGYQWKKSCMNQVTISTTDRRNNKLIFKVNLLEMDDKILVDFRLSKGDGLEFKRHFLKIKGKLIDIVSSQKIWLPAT
Sequence of Serine/threonine-protein kinase Nek2 (P51955 whole entry): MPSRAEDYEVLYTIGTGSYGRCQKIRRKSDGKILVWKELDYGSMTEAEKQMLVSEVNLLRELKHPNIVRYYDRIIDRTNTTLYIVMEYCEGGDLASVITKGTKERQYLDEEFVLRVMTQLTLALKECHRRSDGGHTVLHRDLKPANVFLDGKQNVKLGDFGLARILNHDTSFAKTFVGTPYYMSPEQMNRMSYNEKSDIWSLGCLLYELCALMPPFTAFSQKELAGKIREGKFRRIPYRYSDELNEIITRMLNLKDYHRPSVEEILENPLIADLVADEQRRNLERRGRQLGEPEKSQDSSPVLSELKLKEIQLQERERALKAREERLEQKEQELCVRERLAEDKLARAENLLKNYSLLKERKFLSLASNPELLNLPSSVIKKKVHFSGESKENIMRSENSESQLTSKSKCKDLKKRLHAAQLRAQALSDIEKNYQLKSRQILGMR
Sequence of Tyrosine-protein kinase JAK2 (O60674 whole entry): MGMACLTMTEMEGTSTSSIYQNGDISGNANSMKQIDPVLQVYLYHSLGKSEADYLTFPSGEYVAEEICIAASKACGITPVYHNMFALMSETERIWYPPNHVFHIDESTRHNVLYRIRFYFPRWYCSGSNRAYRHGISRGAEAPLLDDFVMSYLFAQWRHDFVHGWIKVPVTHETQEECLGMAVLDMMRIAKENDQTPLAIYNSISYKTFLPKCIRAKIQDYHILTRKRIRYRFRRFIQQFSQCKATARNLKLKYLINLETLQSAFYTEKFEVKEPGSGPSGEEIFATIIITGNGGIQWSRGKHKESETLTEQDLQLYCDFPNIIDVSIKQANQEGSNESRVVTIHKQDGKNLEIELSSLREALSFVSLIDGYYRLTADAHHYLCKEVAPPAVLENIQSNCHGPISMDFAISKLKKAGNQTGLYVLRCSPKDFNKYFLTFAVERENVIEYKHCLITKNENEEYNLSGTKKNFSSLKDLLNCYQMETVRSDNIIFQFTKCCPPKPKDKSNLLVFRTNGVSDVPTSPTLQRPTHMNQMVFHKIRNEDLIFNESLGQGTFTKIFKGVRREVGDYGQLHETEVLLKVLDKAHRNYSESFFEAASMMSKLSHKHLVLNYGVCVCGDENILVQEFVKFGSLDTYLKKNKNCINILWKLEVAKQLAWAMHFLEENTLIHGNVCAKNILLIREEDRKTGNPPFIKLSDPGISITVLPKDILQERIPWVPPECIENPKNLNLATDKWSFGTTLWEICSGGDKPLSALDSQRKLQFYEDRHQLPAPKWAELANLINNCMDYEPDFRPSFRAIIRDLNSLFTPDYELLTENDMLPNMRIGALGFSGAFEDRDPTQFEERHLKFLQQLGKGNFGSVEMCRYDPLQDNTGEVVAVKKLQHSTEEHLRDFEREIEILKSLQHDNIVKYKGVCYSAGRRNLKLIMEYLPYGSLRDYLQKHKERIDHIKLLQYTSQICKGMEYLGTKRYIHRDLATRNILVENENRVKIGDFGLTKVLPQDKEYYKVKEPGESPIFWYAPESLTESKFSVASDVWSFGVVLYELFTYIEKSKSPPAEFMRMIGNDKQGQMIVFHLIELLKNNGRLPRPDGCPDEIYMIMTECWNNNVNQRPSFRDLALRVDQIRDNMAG
Sequence of Envelope glycoprotein gp160 (Q6QLK5 whole entry, the tested form may be a part): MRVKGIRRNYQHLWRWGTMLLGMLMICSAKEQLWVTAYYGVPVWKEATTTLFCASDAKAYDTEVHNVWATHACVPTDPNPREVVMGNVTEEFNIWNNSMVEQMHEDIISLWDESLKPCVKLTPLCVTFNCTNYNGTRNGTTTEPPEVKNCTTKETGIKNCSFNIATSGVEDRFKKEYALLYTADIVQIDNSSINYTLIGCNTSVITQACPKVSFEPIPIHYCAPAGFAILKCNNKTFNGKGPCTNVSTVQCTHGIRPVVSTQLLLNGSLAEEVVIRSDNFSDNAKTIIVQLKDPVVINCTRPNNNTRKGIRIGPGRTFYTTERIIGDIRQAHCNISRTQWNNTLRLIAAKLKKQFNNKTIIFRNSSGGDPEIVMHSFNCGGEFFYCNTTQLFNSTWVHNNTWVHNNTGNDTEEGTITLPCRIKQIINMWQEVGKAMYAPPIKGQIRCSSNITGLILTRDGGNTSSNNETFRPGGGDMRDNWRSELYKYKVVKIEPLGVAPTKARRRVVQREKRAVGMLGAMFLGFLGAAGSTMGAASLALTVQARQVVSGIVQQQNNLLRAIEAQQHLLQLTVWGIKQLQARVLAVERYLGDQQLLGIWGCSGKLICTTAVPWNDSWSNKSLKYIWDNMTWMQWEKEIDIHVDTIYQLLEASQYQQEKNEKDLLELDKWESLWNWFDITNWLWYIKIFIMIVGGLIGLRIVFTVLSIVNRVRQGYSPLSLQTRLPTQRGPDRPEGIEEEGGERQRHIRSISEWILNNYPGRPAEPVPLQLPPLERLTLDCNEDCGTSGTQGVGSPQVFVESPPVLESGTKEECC

In general, EC50 refers to the concentration giving half of the maximal effect. For orientation: IC50 means the point on the concentration scale where inhibition reaches its midpoint. The term AC50 denotes the midpoint of the concentration-response curve, whichever way the signal moves. For the molecule `O=C1C=C(N2CCOCC2)c2ccccc2C1=O`, the EC50 in assay [1] is 8.79 µM (active). The IC50 in assay [2] is 9.46 µM (active); in assay [3] it was > 20 µM (inactive); in assay [4], 7.07 µM (active). For the same molecule, the AC50 in assay [5] is 8.28 µM (active).

The Ki is the dissociation constant of the complex between target and ligand, obtained from inhibition or displacement. For the molecule `N#Cc1ccc2[nH]c(O)c(-c3ccc(CN4CCOCC4)cn3)c2c1` [AZD-1080], the Ki was > 2 µM (inactive) in assay [6]; > 5.01 µM (inactive) in assay [7]; > 3.16 µM (inactive) in assay [8]; > 2 µM (inactive) in assay [9]; > 7.94 µM (inactive) in assay [10]; > 5.01 µM (inactive) in assay [11]. Besides, the Ki in [12] is > 1.58 µM (inactive); in assay [13], > 1.58 µM (inactive); in assay [14], > 1.58 µM (inactive); in assay [15], > 1.58 µM (inactive); in [16], > 6.31 µM (inactive); in [17], > 7.94 µM (inactive). For the same molecule, the Ki in [18] is > 6.31 µM (inactive); in [19], > 1.58 µM (inactive); in assay [20], > 7.94 µM (inactive); in [21], > 6.31 µM (inactive); in assay [22] it was > 10 µM (inactive); in [23], > 3.98 µM (inactive). Further, the results for the Ki in [24], in [25] and in [26] were > 7.94 µM (inactive), > 1.58 µM (inactive) and > 10 µM (inactive), respectively.

As for `CCc1oc2ccccc2c1C(=O)c1cc(Br)c(O)c(Br)c1` [BENZBROMARONE], the IC50 in assay [27] was 12.8 µM (active); in assay [28] it was 0.131 µM (active); in assay [30] it was 15 µM (inactive); in [31], > 10 µM (inactive); in assay [32] it was 0.131 µM (active); in assay [33] it was > 20 µM (inactive). In addition, the IC50 was > 10 µM (inactive) in assay [34] and > 40 µM (inactive) in [35]. In addition, in [29], the EC50 was 0.059 µM (active).
